From patent publication US20230203041A1, “ANTAGONISTS OF THE ADENOSINE A2A RECEPTOR” (AdoRx Therapeutics Limited, priority 2020, published 2023)

Tests used:
[1] = molecular target: T1, human Adenosine A2b receptor (Homo sapiens, UniProt P29275); test: Adenosine receptor TR-FRET binding assay (CA200645 displacement), A2b; conditions: 30 nM CA200645, CHO cell membranes, 2 hours at room temperature
T1 construct: expressed in transfected cells; host or cells: CHO cell membranes
T1 sequence (P29275 1-332): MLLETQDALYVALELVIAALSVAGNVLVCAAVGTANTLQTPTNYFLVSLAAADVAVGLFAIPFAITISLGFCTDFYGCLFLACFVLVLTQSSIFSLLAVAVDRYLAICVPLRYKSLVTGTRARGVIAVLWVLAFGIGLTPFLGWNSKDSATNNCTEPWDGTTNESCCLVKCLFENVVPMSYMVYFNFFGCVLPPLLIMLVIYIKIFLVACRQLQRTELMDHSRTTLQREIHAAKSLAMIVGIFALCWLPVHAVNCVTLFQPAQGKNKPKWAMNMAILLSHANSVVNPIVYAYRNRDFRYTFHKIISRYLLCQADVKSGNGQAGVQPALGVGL
Procedure: All FRET binding experiments were conducted at room temperature in white 384-well plates, in assay binding buffer containing 1×LabMed (Cisbio, France), 100 μg/mL saponin, 1% DMSO and 0.02% pluronic acid. Binding of the fluorescently labelled Adenosine receptor antagonist XAC (CA200645, FRET acceptor) to terbium-labelled A1, A2a, A2b and A3 adenosine receptors (FRET donors) was detected by time-resolved FRET due to the close proximity of the donor and acceptor in a binding event. To investigate the ability of unlabelled test compounds to bind to Adenosine A1, A2a, A2b and A3 receptors, dose response curves were constructed that determined the ability of a range of concentrations to inhibit the binding of 30 nM CA200645 to the A2b receptor and 100 nM CA200645 to the A1, A2a, and A3 receptor.
Serial dilution (1:3 dilutions) of test compounds in neat DMSO and transfer of a 400 nL sample of test compound into the assay plate was carried out using the Mosquito (TTP Labtech, UK). The compound samples were incubated for 2 hours at room temperature with a fixed concentration of CA200645 defined for each receptor (see above) and CHO cell membranes containing the human Adenosine A1 (0.5 μg/well), A2a (0.3 μg/well), A2b (1 μg/well) or A3 (1 μg/well) receptor in 40 μL of assay buffer. Total and non-specific binding of CA200645 was determined in the absence and presence of 10 μM XAC, respectively. Following 2 hours incubation, the level of CA200645 binding was detected on a Pherastar FSX (BMG Labtech, Germany) using standard TR-FRET settings. The terbium donor was excited with three laser flashes at a wavelength of 337 nm, and donor and acceptor emission was detected at 620 nm and 665 nm wavelengths, respectively. FRET ratios were obtained by multiplying the acceptor/donor ratio value by 10,000. Specific binding was determined by subtracting the non-specific binding FRET ratio from the total binding FRET ratio. Compound IC50 curves were analysed using GraphPad Prism 7.0 (GraphPad, USA) and Ki affinity values were determined from the obtained IC50 values using the method of Cheng and Prusoff.

human PBMCs = test: CD3/CD28 stimulated IL-2 release NECA reversal assay in human PBMCs; format: cell-based; conditions: PBMC, CD3/CD28 antibody stimulated, 1 uM NECA, 24 hours, IL-2 in culture supernatant;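 note: dose-response as % inhibition where 100% equals no-NECA control wells with CD3/CD28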
In short: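 PBMCs from citrated donor blood, 50,000 cells/well on plate-bound CD3 antibody (1 ug/ml), with 1 ug/ml CD28 antibody, 1 uM NECA and antagonist at 0.003-10 μM final. After 24 h at 37° C, supernatant IL-2 was measured by MSD immunoassay.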

[2] = tested on: CD8+ T cells in human whole blood; test: Measurement of pCREB in CD8+ T cells in human whole blood; format: cell-based; conditions: T-cell, 1 h; heparinised human whole blood, rolipram, 3 μM NECA, 60 min, phospho-CREB in CD8+ T cells by FACS
In short: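 Heparinised human whole blood preincubated 20 min at 37 °C with serially diluted A2a antagonists plus rolipram, then stimulated 60 min with 3 μM NECA (final). After fixation and RBC lysis, permeabilized leukocytes stained for phospho-CREB and CD8; pCREB in CD8+ T cells read by flow cytometry.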

[3] = molecular target: T2, human Adenosine A3 receptor (Homo sapiens, UniProt P0DMS8); test: Adenosine receptor TR-FRET binding assay (CA200645 displacement), A3
T2 sequence (P0DMS8 1-318): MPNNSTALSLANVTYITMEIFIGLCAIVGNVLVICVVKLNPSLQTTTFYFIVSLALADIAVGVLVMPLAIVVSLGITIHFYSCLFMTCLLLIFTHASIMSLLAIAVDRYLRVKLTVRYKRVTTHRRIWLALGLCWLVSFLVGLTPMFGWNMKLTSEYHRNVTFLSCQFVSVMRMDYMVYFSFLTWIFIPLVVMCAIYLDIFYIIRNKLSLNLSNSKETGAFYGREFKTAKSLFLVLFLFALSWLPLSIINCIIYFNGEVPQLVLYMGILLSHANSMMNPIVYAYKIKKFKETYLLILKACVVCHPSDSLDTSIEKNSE

[4] = molecular target: T3, human Adenosine A2a receptor (Homo sapiens, UniProt P29274); test: Adenosine receptor TR-FRET binding assay (CA200645 displacement), A2a; conditions: 100 nM CA200645, CHO cell membranes, 2 hours at room temperature
T3 construct: expressed in transfected cells; host or cells: CHO cell membranes
T3 sequence (P29274 whole entry): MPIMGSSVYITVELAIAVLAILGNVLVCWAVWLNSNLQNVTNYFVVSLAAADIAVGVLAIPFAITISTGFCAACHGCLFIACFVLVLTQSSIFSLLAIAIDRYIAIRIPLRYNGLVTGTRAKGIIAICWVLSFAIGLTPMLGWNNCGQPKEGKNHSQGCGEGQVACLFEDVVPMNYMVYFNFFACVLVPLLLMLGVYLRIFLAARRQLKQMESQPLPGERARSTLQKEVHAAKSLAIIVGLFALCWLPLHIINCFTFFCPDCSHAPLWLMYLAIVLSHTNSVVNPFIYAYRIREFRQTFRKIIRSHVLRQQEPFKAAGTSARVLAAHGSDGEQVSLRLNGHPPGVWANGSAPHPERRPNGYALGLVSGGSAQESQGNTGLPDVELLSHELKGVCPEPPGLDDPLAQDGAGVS

[5] = molecular target: T4, human Adenosine A1 receptor (Homo sapiens, UniProt P30542); test: Adenosine receptor TR-FRET binding assay (CA200645 displacement), A1
T4 sequence (P30542 1-326): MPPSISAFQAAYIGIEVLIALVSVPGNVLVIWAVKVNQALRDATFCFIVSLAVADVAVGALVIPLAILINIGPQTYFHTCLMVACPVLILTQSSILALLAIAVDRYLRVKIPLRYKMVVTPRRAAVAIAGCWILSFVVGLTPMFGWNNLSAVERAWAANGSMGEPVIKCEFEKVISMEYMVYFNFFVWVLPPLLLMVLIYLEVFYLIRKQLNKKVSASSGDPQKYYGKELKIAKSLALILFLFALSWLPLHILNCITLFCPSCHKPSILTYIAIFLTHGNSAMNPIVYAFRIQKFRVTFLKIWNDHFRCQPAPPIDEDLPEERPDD

Row | Structure (SMILES) | Ki [1] [nM] | IC50 (human PBMCs) [nM] | IC50 [2] [nM] | Ki [3] [nM] | Ki [4] [nM] | Ki [5] [nM]
1 | Cc1cc(-c2c(-c3cccc(C#N)c3)nn3ccc(C(=O)NCC4(C)CCCNC4)nc23)cc(Cl)n1 (stereo not drawn) [Example 7.18, 3-(2-Chloro-6-methyl-4-pyridyl)-2-(3-cyanophenyl)-N-[(3-methyl-3-piperidyl)methyl]pyrazolo[1,5-a]pyrimidine-5-carboxamide] | 14 | 19 | 470 | > 1000 | 1 | 20
2 | Cc1cc(-c2c(-c3cccc(C#N)c3)nn3ccc(C(=O)N[C@@H](C)[C@H](O)CO)nc23)cc(Cl)n1 [Example 7.19, 3-(2-Chloro-6-methyl-4-pyridyl)-2-(3-cyanophenyl)-N-[(1S,2S)-2,3-dihydroxy-1-methyl-propyl]pyrazolo[1,5-a]pyrimidine-5-carboxamide] | 4 | 4 | 100 | 1410 | 0.1 | 20
3 | Cc1cc(-c2c(-c3cccc(C#N)c3)nn3ccc(C(=O)NCC(C)(C)O)nc23)cc(C)n1 [Example 10, 2-(3-Cyanophenyl)-3-(2,6-dimethyl-4-pyridyl)-N-(2-hydroxy-2-methyl-propyl)pyrazolo[1,5-a]pyrimidine-5-carboxamide] | 19 | 6 | 80 | > 1000 | 0.4 | 236
4 | Cc1cc(-c2c(-c3cccc(C#N)c3)nn3ccc(C(=O)NCC(C)(C)O)nc23)ccn1 [Example 12.2, 2-(3-Cyanophenyl)-N-(2-hydroxy-2-methyl-propyl)-3-(2-methyl-4-pyridyl)pyrazolo[1,5-a]pyrimidine-5-carboxamide] | 21 | 22 | 520 | 56 | 2.9 | 5
5 | Cc1cc(-c2c(-c3cccc(C#N)c3)nn3ccc(C(=O)NCC(C)(C)O)nc23)cc(C(F)F)n1 [Example 12.4, 2-(3-Cyanophenyl)-3-[2-(difluoromethyl)-6-methyl-4-pyridyl]-N-(2-hydroxy-2-methyl-propyl)pyrazolo[1,5-a]pyrimidine-5-carboxamide] | 12 | 4 | 150 | 1550 | 0.1 | 148
6 | COc1cc(-c2c(-c3cccc(C#N)c3)nn3ccc(C(=O)NCC(C)(C)O)nc23)cc(C)n1 [Example 12.6, 2-(3-Cyanophenyl)-N-(2-hydroxy-2-methyl-propyl)-3-(2-methoxy-6-methyl-4-pyridyl)pyrazolo[1,5-a]pyrimidine-5-carboxamide] | 75 | 9 | 370 | 690 | 1 | 251
7 | Cc1cc(-c2c(-c3cccc(C#N)c3)nn3ccc(C(=O)NCC(C)(C)O)nc23)cc(C#N)n1 [Example 12.8, 3-(2-Cyano-6-methyl-4-pyridyl)-2-(3-cyanophenyl)-N-(2-hydroxy-2-methyl-propyl)pyrazolo[1,5-a]pyrimidine-5-carboxamide] | 177 | 35 | 350 | > 1000 | 3.4 | 575
8 | Cc1cc(-c2c(-c3cccc(C#N)c3)nn3ccc(C(=O)NCC(C)(C)O)nc23)cc(C(F)(F)F)n1 [Example 12.9, 2-(3-Cyanophenyl)-N-(2-hydroxy-2-methyl-propyl)-3-[2-methyl-6-(trifluoromethyl)-4-pyridyl]pyrazolo[1,5-a]pyrimidine-5-carboxamide] | 6 | 2 | 80 | 860 | 0.1 | 47
9 | Cc1cc(-c2c(-c3cccc(C#N)c3)nn3ccc(OCC(C)(C)O)nc23)cc(Cl)n1 [Example 15, 3-[3-(2-Chloro-6-methyl-4-pyridyl)-5-(2-hydroxy-2-methyl-propoxy)pyrazolo[1,5-a]pyrimidin-2-yl]benzonitrile] | 9 | 2 | 380 | 1920 | 1.2 | 46
